Data from PMC10403574, “Discovery of a pyrrole-pyridinimidazole derivative as novel SIRT6 inhibitor for sensitizing pancreatic cancer to gemcitabine” (Cell Death & Disease, 2023).

How the values were obtained:
SIRT6 [1] = target: T1, SIRT6 (Homo sapiens, UniProt Q8N6T7); test: Fluor-De-Lys (FDL) SIRT6 deacetylation assay; assay type: biochemical; parameters: The human full-length SIRT6 gene was inserted into the prokaryotic expression vector (pET-28a (+)); inferred from the pET-28a(+) vector, Ni-NTA purification and Ni-NTA biosensor loading); made in house; host or cells: Escherichia coli BL21 (DE3); conditions: fixed concentration of 25 μM, RHKK-Ac-AMC, NI = no inhibition; for inhibition at 25 µM: read-out: Inhibition rate (%)
T1 sequence (Q8N6T7 whole entry): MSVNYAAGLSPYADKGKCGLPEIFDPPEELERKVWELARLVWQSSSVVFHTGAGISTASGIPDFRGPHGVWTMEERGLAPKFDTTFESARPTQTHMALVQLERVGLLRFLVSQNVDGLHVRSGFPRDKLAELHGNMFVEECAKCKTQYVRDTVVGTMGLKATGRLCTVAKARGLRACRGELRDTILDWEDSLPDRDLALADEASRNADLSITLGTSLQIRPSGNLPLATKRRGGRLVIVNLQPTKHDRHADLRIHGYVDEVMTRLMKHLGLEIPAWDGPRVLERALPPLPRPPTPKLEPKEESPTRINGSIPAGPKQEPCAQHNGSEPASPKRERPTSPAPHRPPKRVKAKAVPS
Procedure: The human full-length SIRT6 gene was inserted into the prokaryotic expression vector (pET-28a (+)). The verified recombinant plasmid was transformed into Escherichia coli BL21 (DE3) expression strain and cultured overnight at 37 °C on LB plates supplemented with 50 μg/mL kanamycin. Single colonies were inoculated in fluid kanamycin-containing LB mediums. It was shaken at 160 rpm for 16 h at 37 °C and transferred to kanamycin-containing LB medium at a ratio of 1:100. It was shaken at 160 rpm at 37 °C until the OD600 reached 0.6. The Isopropyl-β-d-thiogalactopyranoside was added to make the final concentration of solution 0.5 mmol/L, cultured for 15 °C and 160 rpm for 24 h.
Bacterial liquid was harvested at 12,000 rpm at 4 °C for 20 min, and then re-suspended in Lysis buffer (20 mmol/L Hepes pH 7.5, 20 mmol/L imidazole, 5% Glycerol, 500 mmol/L NaCl). Cell pellets were disrupted by high-pressure crusher (JNBIO, Guangzhou China) and centrifuged (4 °C, 12000 rpm, for 20 min). Supernatant was collected and purified by FPLC with a 1 mL Ni–NTA Sepharose column (GE Healthcare, Stamford, USA). The SIRT6 protein was eluted at containing 50 mM, 100 mM, 150 mM, 200 mM, and 500 mM imidazole in elution buffer. The purified SIRT6 protein was dialyzed in dialysis buffer (50 mM Tris-HCl, 137 mM NaCl, 2.7 mM KCl, 1 mM MgCl2). The purified SIRT6 protein was analyzed by SDS-PAGE.
Fluor-De-Lys (FDL) assays were used for the examination of the deacetylation activities of sirtuins as described previously. For the detection of SIRT6 activity, the 50-μL reaction mixture contained 5 μM SIRT6, 2.5 mM NAD^+ (β-Nicotinamide adenine dinucleotide hydrate, Sigma, N1636), 75 μM RHKK-Ac-AMC (GL Biochem, Shanghai), compounds/DMSO, and assay buffer. The reactions were incubated at 37 °C for 2 h, added 50 μL stop solution (40 mM nicotinamide, 6 mg/mL trypsin) at 25 °C for 30 min. Fluorescence intensity was measured at an excitation wavelength of 360 nm and an emission wavelength of 460 nm. IC50 values were calculated in GraphPad Prism version 8.00.

SIRT6 [2] = target: T1, SIRT6; parameters: endogenous in cells; host or cells: HeLa; conditions: cited from earlier work
BXPC-3 cells = test: γ-H2AX DNA damage (immunofluorescence, western blot); assay type: cell-based; conditions: BXPC-3, 10 nM gemcitabine, 6.25 μM 8a or combination, 24 h
Procedure: Cells were harvested and lysed in a lysis buffer (solarbio, R0010) supplementing 1 mM PMSF and protease inhibitor (TargetMol, USA). […] Then, the membranes were detected by Tanon 5200 (Tanon, Beijing, China). […]

BXPC-3 xenografts = test: BXPC-3 tumor xenograft in nude mice; assay type: in vivo, BALB/c nude mice; conditions: gemcitabine 10 mg/kg i.p. once every 2 days for 4 weeks
Procedure: Female BALB/c nude mice (14 ± 2 g, 4 weeks old) were purchase. About 2 × 10^6 of BXPC-3 cells were inoculated into nude mouse flanks. When the tumor volume reached approximately 100 mm^3, mice were randomly divided into four groups with six mice per group before treatment and then treated with vehicle, 8a (20 mg/kg), gemcitabine (10 mg/kg) and their combination every 2 days. Tumor volumes and body weight were measured every 3 days, and use the formula to calculate the tumor volume: V = (L × W × W)/2 (V, tumor volume; L, length; and W, width). Mice were sacrificed and tumor tissues were removed. Tumor tissues were fixed with paraformaldehyde (4%) and embedded with paraffin.
To further confirm whether 8a can enhance the antitumor effects of gemcitabine in vivo, the BXPC-3 PDAC xenografts were used. The mice with tumors received intraperitoneal injection of compound 8a (20 mg/kg), gemcitabine (10 mg/kg), or their combination once every 2 days for 4 weeks. Tumor volumes and body weight of mice were monitored every 3 days.

Compound	Inhibition rate (%) (SIRT6 [1])	further results
Cn1c(-c2nccc3[nH]cnc23)cc(Br)c1Br [Compound 1c]		inhibition at 25 µM (SIRT6 [1]): 3.7%
O=C(O)C(F)(F)F.O=C1c2ccccc2C(=O)N1CCCCCCn1cnc2c(-c3cc(Br)c(Br)[nH]3)nccc21 [Compound 10c]	6.4	
BrCCCCCCn1c(-c2nccc3c2ncn3CCCCCCBr)cc(Br)c1Br [Compound 11a]		inhibition at 25 µM (SIRT6 [1]): < 0%
O=C(Nc1ccc(O)c(C(=O)O)c1)c1cccc(NC(=O)c2ccco2)c1 [OSS_128167]		IC50 (SIRT6 [2]): 89 µM
Nc1ccn([C@@H]2O[C@H](CO)[C@@H](O)C2(F)F)c(=O)n1 [gemcitabine]		γ-H2AX foci (BXPC-3 cells): can cause γ-H2AX foci; tumor mass inhibition (BXPC-3 xenografts): 30.1%

The next lines start with results.

Inhibition rate (%) (SIRT6 [1])	Compound	further results
4.1	Brc1cc(-c2nccc3[nH]cnc23)[nH]c1Br.O=C(O)C(F)(F)F [Compound 2a]	
5.3	BrCCCCCCn1cnc2c(-c3cc(Br)c(Br)[nH]3)nccc21.O=C(O)C(F)(F)F [Compound 4a]	
16.7	Brc1cc(-c2nccc3c2ncn3CCCCCCN2CCCCC2)[nH]c1Br.O=C(O)C(F)(F)F [Compound 10d]	
23.8	Brc1cc(-c2nccc3c2ncn3CCCCCCN2CCOCC2)n(CCCCCCN2CCOCC2)c1Br [Compound 11b]	
